Test results from ChEMBL document CHEMBL4376823, “The discovery of a potent and selective third-generation EGFR kinase inhibitor as a therapy for EGFR L858R/T790M double mutant non-small cell lung cancer” (Eur J Med Chem, 2019).
Activity calls are given as the source filed them.

Legend:
[1] = test system: Epidermal growth factor receptor (Homo sapiens), P00533 [L858R,T790M]; assay: Inhibition of EGFR T790M/L858R mutant in human NCI-H1975 cells assessed as reduction in EGFR Y1068 phosphorylation at 5 to 100 nM incubated for 4 hrs by Western blot analysis; type: cell-based
Sequence of Epidermal growth factor receptor (Homo sapiens), P00533 [L858R,T790M] (P00533 whole entry T790M/L858R, looked up): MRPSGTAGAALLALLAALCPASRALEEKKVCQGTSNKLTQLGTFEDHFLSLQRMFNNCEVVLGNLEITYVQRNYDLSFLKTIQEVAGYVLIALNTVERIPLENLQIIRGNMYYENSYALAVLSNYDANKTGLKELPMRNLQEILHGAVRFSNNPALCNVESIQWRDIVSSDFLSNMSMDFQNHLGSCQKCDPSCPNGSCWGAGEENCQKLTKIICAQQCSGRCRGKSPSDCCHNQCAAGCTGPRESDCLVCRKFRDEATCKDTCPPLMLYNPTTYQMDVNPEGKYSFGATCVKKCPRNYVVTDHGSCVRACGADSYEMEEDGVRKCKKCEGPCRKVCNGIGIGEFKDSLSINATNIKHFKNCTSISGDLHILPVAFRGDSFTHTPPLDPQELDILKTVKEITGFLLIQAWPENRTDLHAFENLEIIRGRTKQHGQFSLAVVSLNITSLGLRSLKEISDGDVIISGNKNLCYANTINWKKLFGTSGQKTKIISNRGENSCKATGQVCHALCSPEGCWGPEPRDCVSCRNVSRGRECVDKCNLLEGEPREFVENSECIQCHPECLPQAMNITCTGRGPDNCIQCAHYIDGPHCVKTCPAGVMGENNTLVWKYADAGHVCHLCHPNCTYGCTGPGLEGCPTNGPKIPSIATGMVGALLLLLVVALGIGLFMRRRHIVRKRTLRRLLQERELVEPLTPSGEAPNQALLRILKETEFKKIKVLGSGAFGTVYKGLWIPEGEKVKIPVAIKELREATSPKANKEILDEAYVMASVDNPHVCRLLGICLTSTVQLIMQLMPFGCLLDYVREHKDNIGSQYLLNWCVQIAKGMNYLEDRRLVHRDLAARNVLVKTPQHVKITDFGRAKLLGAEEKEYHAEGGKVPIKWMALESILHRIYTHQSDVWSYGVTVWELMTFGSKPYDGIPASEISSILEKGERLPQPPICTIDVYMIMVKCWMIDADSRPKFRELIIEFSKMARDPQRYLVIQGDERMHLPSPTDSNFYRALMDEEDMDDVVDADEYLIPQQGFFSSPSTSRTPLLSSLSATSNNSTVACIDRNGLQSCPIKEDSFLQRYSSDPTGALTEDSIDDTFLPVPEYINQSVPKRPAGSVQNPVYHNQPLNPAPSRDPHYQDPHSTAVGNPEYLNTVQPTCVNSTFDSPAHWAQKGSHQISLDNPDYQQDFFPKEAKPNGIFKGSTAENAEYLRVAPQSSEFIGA

[2] = test system: Epidermal growth factor receptor (Homo sapiens), P00533 [L858R]; assay: Inhibition of EGFR L858R mutant in human PC9 cells assessed as reduction in AKT phosphorylation incubated for 4 hrs by Western blot analysis; type: cell-based
Sequence of Epidermal growth factor receptor (Homo sapiens), P00533 [L858R] (P00533 whole entry L858R): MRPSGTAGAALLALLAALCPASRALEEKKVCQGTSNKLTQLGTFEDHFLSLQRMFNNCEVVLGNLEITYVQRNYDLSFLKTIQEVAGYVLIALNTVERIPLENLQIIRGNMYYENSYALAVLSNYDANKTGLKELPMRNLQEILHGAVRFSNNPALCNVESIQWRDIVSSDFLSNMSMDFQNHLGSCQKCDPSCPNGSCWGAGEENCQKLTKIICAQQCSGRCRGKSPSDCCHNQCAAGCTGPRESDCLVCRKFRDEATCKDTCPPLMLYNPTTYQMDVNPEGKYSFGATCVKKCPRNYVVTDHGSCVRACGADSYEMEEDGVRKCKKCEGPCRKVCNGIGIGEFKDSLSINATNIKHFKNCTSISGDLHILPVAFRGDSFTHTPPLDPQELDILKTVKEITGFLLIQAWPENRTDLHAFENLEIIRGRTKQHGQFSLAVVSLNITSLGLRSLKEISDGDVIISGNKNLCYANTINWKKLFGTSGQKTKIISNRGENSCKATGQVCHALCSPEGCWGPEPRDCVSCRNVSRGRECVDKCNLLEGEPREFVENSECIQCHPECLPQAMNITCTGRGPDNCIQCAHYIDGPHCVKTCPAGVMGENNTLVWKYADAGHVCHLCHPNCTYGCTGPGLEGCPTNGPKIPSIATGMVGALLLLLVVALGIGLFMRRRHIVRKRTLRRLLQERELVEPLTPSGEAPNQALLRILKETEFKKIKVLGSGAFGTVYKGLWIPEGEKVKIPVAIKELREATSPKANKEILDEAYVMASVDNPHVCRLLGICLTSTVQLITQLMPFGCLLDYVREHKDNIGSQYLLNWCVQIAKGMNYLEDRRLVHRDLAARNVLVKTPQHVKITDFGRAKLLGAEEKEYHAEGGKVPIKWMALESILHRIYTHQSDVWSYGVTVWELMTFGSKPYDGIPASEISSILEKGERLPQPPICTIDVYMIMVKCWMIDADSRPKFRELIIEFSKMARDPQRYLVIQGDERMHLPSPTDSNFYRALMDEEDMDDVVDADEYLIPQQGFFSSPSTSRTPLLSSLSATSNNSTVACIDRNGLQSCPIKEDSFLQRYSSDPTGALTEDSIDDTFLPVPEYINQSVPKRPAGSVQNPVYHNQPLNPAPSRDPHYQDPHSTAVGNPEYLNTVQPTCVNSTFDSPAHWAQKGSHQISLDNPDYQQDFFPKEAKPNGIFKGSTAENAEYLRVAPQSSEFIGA

[3] = test system: NCI-H1975; assay: Induction of apoptosis in human NCI-H1975 cells assessed as downregulation of Bcl-2 at 10 to 50 nM incubated for 24 hrs by Western blot analysis; type: functional, cell-based
[4] = test system: Epidermal growth factor receptor (Homo sapiens), P00533 [L858R,T790M]; assay: Inhibition of EGFR T790M/L858R mutant in human NCI-H1975 cells assessed as reduction in AKT phosphorylation at 5 to 100 nM incubated for 4 hrs by Western blot analysis; type: cell-based
[5] = target: T1, Epidermal growth factor receptor (Homo sapiens, UniProt P00533); assay: Inhibition of EGFR in human NCI-H292 cells assessed as reduction in EGFR Y1068 phosphorylation at 5 to 100 nM incubated for 4 hrs by Western blot analysis; type: cell-based
T1 sequence (P00533 whole entry): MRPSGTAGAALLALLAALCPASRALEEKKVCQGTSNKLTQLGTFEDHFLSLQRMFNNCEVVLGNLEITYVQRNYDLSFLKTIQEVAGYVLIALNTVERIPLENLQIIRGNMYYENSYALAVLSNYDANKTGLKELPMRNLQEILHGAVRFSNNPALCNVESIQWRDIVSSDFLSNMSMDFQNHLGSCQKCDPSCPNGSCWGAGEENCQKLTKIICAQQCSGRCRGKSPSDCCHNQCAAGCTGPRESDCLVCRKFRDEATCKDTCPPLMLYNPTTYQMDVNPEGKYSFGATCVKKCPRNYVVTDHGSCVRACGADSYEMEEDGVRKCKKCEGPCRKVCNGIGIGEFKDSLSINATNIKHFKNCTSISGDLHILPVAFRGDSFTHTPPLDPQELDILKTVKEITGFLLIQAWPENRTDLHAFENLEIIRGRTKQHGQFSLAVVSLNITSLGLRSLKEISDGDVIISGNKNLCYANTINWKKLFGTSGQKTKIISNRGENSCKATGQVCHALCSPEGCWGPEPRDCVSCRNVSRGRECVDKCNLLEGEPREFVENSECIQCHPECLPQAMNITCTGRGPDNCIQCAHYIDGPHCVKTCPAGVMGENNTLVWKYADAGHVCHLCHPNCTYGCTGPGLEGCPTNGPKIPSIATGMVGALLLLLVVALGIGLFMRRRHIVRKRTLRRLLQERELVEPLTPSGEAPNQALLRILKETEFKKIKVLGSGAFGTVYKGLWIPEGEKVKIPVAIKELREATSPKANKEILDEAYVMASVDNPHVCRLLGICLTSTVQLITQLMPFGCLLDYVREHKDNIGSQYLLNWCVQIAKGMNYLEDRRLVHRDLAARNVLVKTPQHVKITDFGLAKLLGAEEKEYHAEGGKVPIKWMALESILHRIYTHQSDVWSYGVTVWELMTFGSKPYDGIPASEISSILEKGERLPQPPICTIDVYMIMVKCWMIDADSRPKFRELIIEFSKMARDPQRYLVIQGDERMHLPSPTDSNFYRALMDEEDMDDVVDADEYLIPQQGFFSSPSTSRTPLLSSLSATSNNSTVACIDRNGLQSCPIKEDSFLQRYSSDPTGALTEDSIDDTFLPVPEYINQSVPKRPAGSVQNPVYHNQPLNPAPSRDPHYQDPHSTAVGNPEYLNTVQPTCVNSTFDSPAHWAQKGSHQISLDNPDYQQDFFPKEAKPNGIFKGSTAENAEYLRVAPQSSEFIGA

[6] = target: T1, Epidermal growth factor receptor; assay: Inhibition of EGFR in human NCI-H292 cells assessed as reduction in AKT phosphorylation incubated for 4 hrs by Western blot analysis; type: cell-based
[7] = test system: Epidermal growth factor receptor (Homo sapiens), P00533 [L858R]; assay: Inhibition of EGFR L858R mutant in human PC9 cells assessed as reduction in AKT phosphorylation at 5 to 100 nM incubated for 4 hrs by Western blot analysis; type: cell-based
[8] = test system: Epidermal growth factor receptor (Homo sapiens), P00533 [L858R,T790M]; assay: Inhibition of EGFR T790M/L858R mutant in human NCI-H1975 cells assessed as reduction in EGFR Y1068 phosphorylation incubated for 4 hrs by Western blot analysis; type: cell-based
[9] = test system: NCI-H1975; assay: Induction of apoptosis in human NCI-H1975 cells assessed as upregulation of Bax at 10 to 50 nM incubated for 24 hrs by Western blot analysis; type: functional, cell-based
[10] = test system: NCI-H1975; assay: Antitumor activity against human NCI-H1975 cells xenografted in ig dosed BALB/c mouse assessed as tumor growth inhibition for one week; type: functional, organism-based
[11] = test system: NCI-H1975; assay: Induction of apoptosis in human NCI-H1975 cells assessed as upregulation of Bad at 10 to 50 nM incubated for 24 hrs by Western blot analysis; type: functional, cell-based
[12] = test system: NCI-H1975; assay: Induction of apoptosis in human NCI-H1975 cells assessed as reduction in mitochondrial membrane potential at 5 to 50 nM incubated for 24 hrs by JC-1 staining based laser scanning confocal microscopy; type: functional, cell-based
[13] = target: T1, Epidermal growth factor receptor; assay: Inhibition of EGFR in human NCI-H292 cells assessed as reduction in AKT phosphorylation at 5 to 100 nM incubated for 4 hrs by Western blot analysis; type: cell-based
[14] = test system: Epidermal growth factor receptor (Homo sapiens), P00533 [L858R,T790M]; assay: Inhibition of EGFR T790M/L858R mutant in human NCI-H1975 cells assessed as reduction in AKT phosphorylation incubated for 4 hrs by Western blot analysis; type: cell-based
[15] = test system: Epidermal growth factor receptor (Homo sapiens), P00533 [L858R]; assay: Inhibition of EGFR L858R mutant in human PC9 cells assessed as reduction in EGFR Y1068 phosphorylation at 5 to 100 nM incubated for 4 hrs by Western blot analysis; type: cell-based

C=CC(=O)Nc1cc(Nc2nccc(-c3cn(C)c4ccccc34)n2)c(OC)cc1[S+]([O-])CCN(C)C (single isomer, unassigned; (-))
active: inhibition [1] | inhibition [2] Dose-dependent effect | Activity [3] | inhibition [4] | inhibition [5] | inhibition [6] Dose-dependent effect | inhibition [7] | inhibition [8] Dose-dependent effect | Activity [9] | TGI [10] Dose-dependent effect | Activity [11] | Activity [12] Dose-dependent effect | inhibition [13] | inhibition [14] Dose-dependent effect | inhibition [15]
